In patent US6537972B1, “Compositions and methods for inhibiting human immunodeficiency virus infection by down-regulating human cellular genes” (Subsidiary No. 3., Inc., priority 1997, dated 2003):

Key:
[1] = tested on: latent HIV provirus in OM10.1 cells; experiment: Inhibition of TNF-α induction of latent HIV provirus in OM10.1 cells (CD4 / p24 by flow cytometry); format: cell-based, HIV-1; details: for induction of latent HIV provirus in OM10.1 cells (retention of CD4 expression): 24 hour incubation, FIG. 25, 26; for intracellular p24 levels in treated cells: compared with untreated controls
Procedure: OM10.1 cells were cultured in RPMI 1640 glucose-free media prior to and during incubation with NADH dehydrogenase inhibitors and TNF-α induction. The inhibitors were added to the cells followed by TNF-α induction 1-2 hours later. The expression of CD4 by the cells was assessed by anti-CD4 antibody staining and flow cytometry after 24 hour incubation at 37° C.

[2] = tested on: HIV-1SF33; experiment: Infection of freshly isolated human PBLs with HIV-1SF33 in the presence of mofarotene (CD3-gated flow cytometry); format: cell-based; details: for % CD4+ in T cell population / % p24+ in CD4+ T population: HIV +, HIV-1SF33 TCID50 1000
Procedure: (§1) Human peripheral blood leukocytes (PBLs) were isolated using Ficoll-Hypaque density gradient separation. Cells were washed twice and resuspended in RPMI+10% FBS+2% human AB serum+penicillin/streptomycin/glutamine+100 Units/ml of IL-2 at a concentration of 0.5×10^6 cells/ml. PBLs were then activated with phytohemagglutinin at 0.5 μg/ml and placed in a humidified incubator at 37° C./[…]. After two days of activation, 10^6 cells were infected with HIV-1SF33 at TCID50 of 1000, in the presence of various concentrations of mofarotene: 0 μM, 1 μM, 0.5 μM, 0.1 μM, and 0.05 μM. A separate set of uninfected samples under identical concentrations of mofarotene were also maintained as controls. The samples were analyzed by flow cytometry at day 4 and day 6 post infection. The cells were gated for CD3 expression (for T cells). Then the expression of CD4 and viral p24 and CD4 was examined by bivariate dot plot.

[3] = tested on: human peripheral blood leukocytes (CD3+ T cells); experiment: Uninfected human PBLs under mofarotene (control samples, CD3-gated flow cytometry); format: cell-based; details: for % CD4+ in T cell population / % p24+ in CD4+ T population: HIV −, human PBLs; for % CD4+ in T cell population: CD3+ gated
Procedure: as §1

[4] = tested on: OM10.1 cells; format: cell-based; details: human, 24 h, 100 nM
[5] = tested on: latent HIV-1 provirus in OM10.1 cells; experiment: GSE selection by maintained CD4 expression in OM10.1 cells after TNF-α induction; format: cell-based; details: GSE from HL-60 RFE library, selected in OM10.1 cells
Procedure: The libraries prepared from HL-60 cells according to the method of Section 6.1.1. supra, were transfected into the packaging cell line, PA317 (ATCC CRL #9078), and converted into retrovirus for infection of OM10.1 cells. Libraries in pLNCX vector were co-cultured and selected with G418. Libraries in pLNGFRM vector were transduced by spinoculation (centrifugation of target cells at 1200 xg for 90 min. in the presence of filtered retroviral supernatant) and selected by FACS sorting of the NGFR^+ population. After selection, the OM10.1 cells harboring the entire RFE library were induced with 10 U/ml of TNF-α at 37° C., and 24 hours later, were stained with an antibody and sorted for CD4 expression. Genomic DNA from the CD4^+ cells was purified and used for PCR amplification of inserts with the vector-derived primers. The amplified mixture was digested with EcoRI and BamHI and cloned back into the retroviral vector. The selection was repeated for additional rounds.
For the immunofluorescent staining of CD4^+ cells for selection, 10^7 cells were washed twice with Assay Buffer (500 ml PBS, 1 ml of 0.5 mM of EDTA at pH 8, 0.5 ml of 10% sodium azide and 10 ml of fetal bovine serum), and resuspended in 500 μl PBS to which 50 μl of anti-CD4 antibody (Q4120 PE, Sigma) was added. After incubation at 4° C. for 30 min., 5 ml of Assay Buffer was added and the cells centrifuged at 1200 rpm for 4 min. The cells were washed twice with Assay Buffer before sorting by FACS. The aforementioned procedure was performed under sterile conditions.
GSEs derived from cDNAs representing expressed human cellular genes were identified and isolated from a RFE library made from HL-60 cells using HIV provirus activation in OM10.1 cells as a read-out. Following transfection of the entire library into a packaging cell line, retrovirus carrying the library was used to infect OM10.1 cells by co-cultivation or spinoculation, and NGFR selection was performed to ensure the retention of the viral vector. When the infected cells were treated with TNF-α, a small number of residual CD4^+ cells were detected by an anti-CD4 antibody and sorted by FACS. The GSEs contained in these cells were recovered by PCR amplification and their nucleotide sequences determined.

[6] = tested on: HIV-1SF2; experiment: Protection of GSE-transduced CEM-ss cells from productive infection with HIV-1SF2 (intracellular p24); format: cell-based; details: HIV-1SF2 at TCID50 of 1000; versus LNGFRM vector control; FIG. 3, 23, 24
Procedure: In Section 6.2, infra, several GSEs were tested for their ability to protect CEM-ss cells from infection with HIV-1 strain SF2. Uninfected cells were transduced with a retroviral construct containing either vector DNA or a GSE polynucleotide. Non-transduced cells were eliminated by selection of NGFR^+ cells by an antibody or by exposure to the selection agent, G-418. The percentage of p24^+ cells was determined at specific time points post infection.
In order to determine p24 expression in HIV-infected cells, the cells were first washed twice with Assay Buffer. About 10^6 cells were suspended in 100 μl Assay Buffer, mixed with 2 ml of Ortho PermeaFix Solution (Ortho Diagnostics), and incubated for 40 min. at room temperature. After centrifugation at 1200 rpm for 4 min. at 4° C., the cells were resuspended in 2 ml Wash Buffer (500 ml PBS, 25 ml fetal bovine serum, 1.5% bovine serum albumin and 0.0055% EDTA) for 10 min. at room temperature. After centrifugation, the cells were resuspended in 50 μl Wash Buffer and mixed with 1:500 dilution of an IgG22, antibody for 20 min. at 4° C., followed by incubation with 5-10 μl of anti-p24 antibody (KC57-FITC, Coulter) for 30 min. at 4° C. The cells were then washed twice with Wash Buffer and analyzed by flow cytometry.
A total of twenty GSEs were isolated by the two aforementioned selection strategies using OM10.1 and CEM-ss cells. […]

[7] = mofarotene 0.05 μM, human PBLs, day 6
[8] = mofarotene 0.1 μM, human PBLs, day 6
[9] = mofarotene 0.5 μM, human PBLs, day 6
[10] = mofarotene 1.0 μM, human PBLs, day 6
[11] = mofarotene 1.0 μM, human PBLs, day 6, listed as mofarotene

Molecule: C/C(=C\c1ccc(OCCN2CCOCC2)cc1)c1ccc2c(c1)C(C)(C)CCC2(C)C [Mofarotene]
- cells that retained CD4 expression ([1]; 100 nM, TNF-α-induced OM10.1 cells): 80%
- induction of latent HIV provirus in OM10.1 cells (retention of CD4 expression) ([1]; TNF-α-induced OM10.1 cells): inhibited HIV-1 induction at even lower concentrations
- intracellular p24 levels in treated cells [1]: suppressed intracellular p24 levels
- depletion of CD4+ T cells by HIV infection ([2]; 1 μM, day 6, human PBLs): inhibited the depletion of CD4^+ T cells
- % CD4+ in T cell population [2, 7]: 18%
- % p24+ in CD4+ T population [2, 7]: 20.5%
- % CD4+ in T cell population [2, 8]: 28%
- % p24+ in CD4+ T population [2, 8]: 11.4%
- % CD4+ in T cell population [2, 9]: 24%
- % p24+ in CD4+ T population [2, 9]: 12.5%
- % CD4+ in T cell population [2, 10]: 25%
- % p24+ in CD4+ T population [2, 10]: 10%
- % CD4+ in T cell population [2, 11]: ~25%
- % p24+ in CD4+ T population [2, 11]: 10%
- difference between HIV-infected PBLs with or without mofarotene ([2]; day 4 post-infection): little detectable difference
- % CD4+ in T cell population ([3]; mofarotene 0.05 μM, day 6): 33%
- % p24+ in CD4+ T population ([3]; mofarotene 0.05 μM, day 6): 0%
- % CD4+ in T cell population ([3]; mofarotene 0.1 μM, day 6): 34%
- % p24+ in CD4+ T population ([3]; mofarotene 0.1 μM, day 6): 0%
- % CD4+ in T cell population ([3]; mofarotene 0.5 μM, day 6): 34%
- % p24+ in CD4+ T population ([3]; mofarotene 0.5 μM, day 6): 0%
- % CD4+ in T cell population ([3]; mofarotene 1.0 μM, day 6): 36%
- % p24+ in CD4+ T population ([3]; mofarotene 1.0 μM, day 6): 0%
- percentage of CD4+ T cells, compound alone ([3]; day 4, uninfected samples): did not significantly alter
- expression level of CD3 on the cell surface ([3]; day 6): did not alter
- increase of the percentage of CD4+ T cells in uninfected samples, compound alone ([3]; day 6, effect called minimal): up to 4%
- cells that remained viable [4]: greater than 80%

Molecule: CCC1(CCC(C)C)C(=O)NC(=O)NC1=O [amytal]
- induction of latent HIV provirus in OM10.1 cells (retention of CD4 expression) ([1]; TNF-α-induced OM10.1 cells): inhibited the induction of latent HIV provirus in OM10.1 cells in a dose-dependent manner
- intracellular p24 levels in treated cells [1]: suppressed intracellular p24 levels

B1: CF-101: GSE; sense, identity with the gene for the ND2 subunit of human NADH dehydrogenase (nucleic acid)
sense: CATCAGCCCTTCTTAACATCTACTTCTACCTACGCCTAATCTACTCCACCTCAATCACACTACTCCCCATATCTAACAACGTAAAAATAAAATGACAGTTTGAGCATACAAAACCCACCCCATTCCTCCCCACACTCATCGCC
- suppression of HIV replication by the GSE [5]: HIV-suppressive activities

B2: CF-315: GSE; antisense of a sequence with identity to the gene for the ND6 subunit of human NADH dehydrogenase (nucleic acid)
antisense: AGATCCTATTGGTGCGTGGGCTTTGTATGATTATGGGCGTAGATTAGTAGTAGTTACTGGTTGAACATTGTTTGTTGGTGTATATATTGTAATTGGGATTGCTCGGGGGAATAGGTTATGTGATTAGGAGTAGGG
- suppression of HIV replication by the GSE [5]: suppresses HIV replication
- productive HIV infection of GSE-containing CEM-ss cells (intracellular p24+ cells) [6]: inhibited infection of human T cells by HIV-1SF2

B3: CF-117: GSE; antisense, gene for the ND6 subunit of human NADH dehydrogenase (nucleic acid)
antisense: GTGAAAGAGTATGATGGGGTGGTGGTTGTCGTAAACTTTAATAGTGTAGGAAGCTGAATAATTTATAAAGGAGAGGGGACAGGGTTGATTCGGGAGGATC
- suppression of HIV replication by the GSE [5]: suppresses HIV activities

B4: CF-319: GSE; sense, identity with the gene for the ND6 subunit of human NADH dehydrogenase (nucleic acid)
sense: GATCCTCCCGAATCAACCCTGACCCCTCTCCTTCATAAATTATTCAGCTTCCTACACTATTAAAGTTTACCACAACCACCACGCCATCATACTCCTTCAC
- suppression of HIV replication by the GSE [5]: suppresses HIV replication
